From PubChem BioAssay (NCI)
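Growth conditions: 96-well plates. Treatment: test compound, 48 hours, 5 concentrations. Analysis: linear interpolation between bracketing concentrations; unreached endpoints set to highest concentration. TGI: concentration producing complete growth inhibition.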

tested on: DLD-1 colon; experiment: NCI tumour cell line growth inhibition, 48 h

| SMILES | TGI |
| --- | --- |
| COc1cc2c(cc1OC)C1(c3ccc(Cl)cc3)ON=C(c3ccccc3)N1CS2 (centres undefined) | > 100 µM |
| O=C(Cc1ccccc1)NN1C(=O)C(Cl)C1c1ccccc1O (centres undefined) | > 100 µM |
| Cc1ccc(CC(C)N)cc1 (centres undefined) | > 100 µM |
| Cc1cc(NCCCCCCCNc2cc(C)nc3cc([N+](=O)[O-])ccc23)c2ccc([N+](=O)[O-])cc2n1 | 3.55 µM |
| Nc1ccc(C(=O)NN2C(=O)C(Cl)C2c2ccccc2)cc1 (centres undefined) | > 100 µM |
| N#C/C(=C\c1c[nH]c2ccccc12)C(=O)c1ccc(O)c(O)c1 | > 100 µM |
| CCCc1ccc(NCc2cc(OC)c(OC)c(OC)c2)cc1 | 48.1 µM |
| CCOC(=O)CSc1nnc(C(Sc2nc(-c3ccccc3)c(-c3ccccc3)[nH]2)C(C)C)n1-c1ccccc1 (centres undefined) | > 10 µM |
| CC(NC(C)(C)C)C(=O)c1cccc(Cl)c1 (centres undefined) | > 100 µM |
| COc1cc(/C=C(/C#N)C(N)=O)ccc1O | > 100 µM |

tested on: KM20L2 colon; experiment: NCI tumour cell line growth inhibition, 48 h

| SMILES | TGI |
| --- | --- |
| COc1cc2c(cc1OC)C1(c3ccc(Cl)cc3)ON=C(c3ccccc3)N1CS2 (centres undefined) | > 100 µM |
| O=C(Cc1ccccc1)NN1C(=O)C(Cl)C1c1ccccc1O (centres undefined) | > 100 µM |
| Cc1ccc(CC(C)N)cc1 (centres undefined) | > 100 µM |
| Cc1cc(NCCCCCCCNc2cc(C)nc3cc([N+](=O)[O-])ccc23)c2ccc([N+](=O)[O-])cc2n1 | 32 µM |
| Nc1ccc(C(=O)NN2C(=O)C(Cl)C2c2ccccc2)cc1 (centres undefined) | > 100 µM |
| N#C/C(=C\c1c[nH]c2ccccc12)C(=O)c1ccc(O)c(O)c1 | > 100 µM |
| CCCc1ccc(NCc2cc(OC)c(OC)c(OC)c2)cc1 | > 100 µM |
| CCOC(=O)CSc1nnc(C(Sc2nc(-c3ccccc3)c(-c3ccccc3)[nH]2)C(C)C)n1-c1ccccc1 (centres undefined) | > 10 µM |
| CC(NC(C)(C)C)C(=O)c1cccc(Cl)c1 (centres undefined) | > 100 µM |
| COc1cc(/C=C(/C#N)C(N)=O)ccc1O | > 100 µM |

tested on: M19-MEL melanoma; experiment: NCI tumour cell line growth inhibition, 48 h

| SMILES | TGI |
| --- | --- |
| COc1cc2c(cc1OC)C1(c3ccc(Cl)cc3)ON=C(c3ccccc3)N1CS2 (centres undefined) | > 100 µM |
| O=C(Cc1ccccc1)NN1C(=O)C(Cl)C1c1ccccc1O (centres undefined) | 89.6 µM |
| Cc1cc(NCCCCCCCNc2cc(C)nc3cc([N+](=O)[O-])ccc23)c2ccc([N+](=O)[O-])cc2n1 | 35.9 µM |
| Nc1ccc(C(=O)NN2C(=O)C(Cl)C2c2ccccc2)cc1 (centres undefined) | > 100 µM |
| N#C/C(=C\c1c[nH]c2ccccc12)C(=O)c1ccc(O)c(O)c1 | > 100 µM |
| CCCc1ccc(NCc2cc(OC)c(OC)c(OC)c2)cc1 | 44.6 µM |
| CCOC(=O)CSc1nnc(C(Sc2nc(-c3ccccc3)c(-c3ccccc3)[nH]2)C(C)C)n1-c1ccccc1 (centres undefined) | > 10 µM |
| CC(NC(C)(C)C)C(=O)c1cccc(Cl)c1 (centres undefined) | > 100 µM |
| COc1cc(/C=C(/C#N)C(N)=O)ccc1O | > 100 µM |

tested on: P388 leukemia; experiment: NCI tumour cell line growth inhibition, 48 h

| SMILES | TGI |
| --- | --- |
| COc1cc(/C=C(/C#N)C(N)=O)ccc1O | > 100 µM |

tested on: P388/ADR leukemia; experiment: NCI tumour cell line growth inhibition, 48 h

| SMILES | TGI |
| --- | --- |
| COc1cc(/C=C(/C#N)C(N)=O)ccc1O | > 100 µM |

tested on: RXF-631 renal; experiment: NCI tumour cell line growth inhibition, 48 h

| SMILES | TGI |
| --- | --- |
| COc1cc2c(cc1OC)C1(c3ccc(Cl)cc3)ON=C(c3ccccc3)N1CS2 (centres undefined) | > 100 µM |
| Cc1ccc(CC(C)N)cc1 (centres undefined) | > 100 µM |
| Cc1cc(NCCCCCCCNc2cc(C)nc3cc([N+](=O)[O-])ccc23)c2ccc([N+](=O)[O-])cc2n1 | > 45.9 µM |
| CC(NC(C)(C)C)C(=O)c1cccc(Cl)c1 (centres undefined) | > 100 µM |

tested on: SN12K1 renal; experiment: NCI tumour cell line growth inhibition, 48 h

| SMILES | TGI |
| --- | --- |
| COc1cc(/C=C(/C#N)C(N)=O)ccc1O | > 100 µM |

tested on: SNB-78 CNS; experiment: NCI tumour cell line growth inhibition, 48 h

| SMILES | TGI |
| --- | --- |
| COc1cc2c(cc1OC)C1(c3ccc(Cl)cc3)ON=C(c3ccccc3)N1CS2 (centres undefined) | > 100 µM |
| O=C(Cc1ccccc1)NN1C(=O)C(Cl)C1c1ccccc1O (centres undefined) | > 100 µM |
| Cc1ccc(CC(C)N)cc1 (centres undefined) | > 100 µM |
| Cc1cc(NCCCCCCCNc2cc(C)nc3cc([N+](=O)[O-])ccc23)c2ccc([N+](=O)[O-])cc2n1 | > 31.6 µM |
| Nc1ccc(C(=O)NN2C(=O)C(Cl)C2c2ccccc2)cc1 (centres undefined) | > 100 µM |
| CCCc1ccc(NCc2cc(OC)c(OC)c(OC)c2)cc1 | > 100 µM |
| CCOC(=O)CSc1nnc(C(Sc2nc(-c3ccccc3)c(-c3ccccc3)[nH]2)C(C)C)n1-c1ccccc1 (centres undefined) | > 10 µM |
| COc1cc(/C=C(/C#N)C(N)=O)ccc1O | > 100 µM |
